{"source": "paper PMC6680510", "about": "“Benzotriazine Di-Oxide Prodrugs for Exploiting Hypoxia and Low Extracellular pH in Tumors” (Molecules, 2019)", "key": {"SiHa cells [1]": {"tested_on": "SiHa cells", "assay": "IC50 assay (inhibition of proliferation, 4 h exposure, SRB)", "settings": "SiHa; for IC50: Homo sapiens, 4 h", "summary_of_the_method": "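Cells exposed to compound for 4 h in titrated medium, then washed and regrown 5 days under standard conditions (oxia, pHe 7.4). Growth read by sulforhodamine B staining; IC50 from 4-parameter logistic regression of duplicate cultures.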"}, "FaDu cells": {"tested_on": "FaDu cells", "assay": "IC50 assay (inhibition of proliferation, 4 h exposure, SRB)", "assay_type": "cell-based", "settings": "for IC50: Homo sapiens, 4 h"}, "UT-SCC-74B cells": {"tested_on": "UT-SCC-74B cells", "assay": "IC50 assay (inhibition of proliferation, 4 h exposure, SRB)", "assay_type": "cell-based", "settings": "UT-SCC-74B, UT-SCC-74B; for IC50: Homo sapiens, 4 h", "procedure": "Cells were seeded in 96-well plates (SiHa or FaDu 1500 cells/well, UT-SCC-74B 800 cells/well) in 100 μL. After incubation for 2 h, the drugs were added in 50 μL of the same titrated medium at 3× the final concentration to duplicate the wells. After a further 4 h the plates were checked for drug precipitation using a phase contrast microscope, then drugs were removed by aspirating and washing with the standard (pH 7.4) medium, then aspirating again and adding 150 μL of the medium. Cultures were then grown for 5 days before staining with sulphorhodamine B and measuring absorbance, with the estimation of IC50 values using 4-parameter logistic regression, as previously carried out.\nThe medium and plasticware was equilibrated in the chamber for 3 days prior to use. In the anoxia experiments, FaDu cells were plated in poly-L-lysine coated plates (Corning Cat # 356461) to improve attachment. […]\nFootnotes: a Number of experiments. b Anoxic cytotoxicity ratio = oxic IC50/anoxic IC50. c pH\ncytotoxicity ratio = IC50 at pHe 7.4/ IC50 at pHe 6.5. d Overall ratio = oxic IC50 pHe 7.4 / anoxic IC50 pHe\n6.5. Values are means and errors are SEM. For ratios, the errors are root mean square SEM. […]"}, "SiHa and SiHa/POR cells": {"tested_on": "SiHa and SiHa/POR cells", "assay": "IC50 in SiHa versus SiHa/POR cultures under anoxia", "assay_type": "cell-based", "settings": "4 h under anoxia, pHe 7.4", "procedure": "The lack of effect of POR over-expression on the reductive metabolism of the BTO acids in intact cells led us to compare the cytotoxicities of SN30000 (2), 4a, and 7a in SiHa/POR, and the parental line, under anoxia (Figure 6).\nDrug exposure was for 4 h under anoxia, at pHe 7.4, with regrowth under aerobic conditions for 5 days before staining with SRB. Values are means and SEM for the two experiments, each with triplicate cultures at each drug concentration. TEXT PRINTED IN THE PICTURE: Cmpd 2: Ratio 6.75 ± 0.20 | Cmpd 4a: Ratio 3.40 ± 0.22 | Cmpd 7a: Ratio 2.67 ± 0.46"}, "SiHa cells [2]": {"tested_on": "SiHa cells", "assay": "Metabolism and uptake of ester 4b in anoxic single cell suspensions", "assay_type": "in vitro ADME", "settings": "anoxic SiHa suspensions after addition of 4b (150 μM), at 30 min", "source_text": "If the anionic sidechain of the BTO acids results in low intracellular concentrations, with reductive metabolism occurring largely at the cell surface, the corresponding esters would be expected to provide improved delivery to the intracellular compartment (consistent with their higher cytotoxic potencies, as noted in Section 2.5). To test this, we compared the metabolism of ester 4b (Figure 7A) with its corresponding acid 4a (Figure 7B) by monitoring extracellular concentrations in anoxic SiHa suspensions. The rates of metabolism of both compounds were unaffected by pHe, consistent with the results for 4a in Figure 5B. The ester was metabolized more rapidly than the acid, with only a trace of acid 4a detected transiently as an extracellular metabolite (Figure 7A). The major metabolites were the less polar 1-oxide, 15a, and the 1-oxide of the ester, 16a. In separate experiments with higher initial concentrations of 4b, 15a was again the main extracellular metabolite (Figure 7C, left). […] Compound 4b itself was not detected in the intracellular samples, presumably reflecting a lack of retention in cells and the very low intracellular volume, which will compromise analytical sensitivity (only 2 × 10^6 cells were collected for each analysis in this experiment).\nFigure 7 Metabolism of BTO ester 4b and the corresponding acid 4a by anoxic SiHa single cell suspensions (2 × 10^6 cells/mL). (A) Extracellular concentrations following the addition of 4b (50 μM). (B) Extracellular concentrations following the addition of 4a (50 μM). (C) Extracellular (left) and intracellular (right) concentrations following the addition of 4b (150 μM). Values are means and errors are SEM for 3 replicate cultures."}, "[3]": {"assay": "Solubility in AlphaMEM + 5% FBS, pH 7.4", "settings": "culture medium (AlphaMEM + 5% FBS), pH 7.4, plasma or biological fluid, kinetic from dmso stock"}, "SiHa cells [4]": {"tested_on": "SiHa cells", "assay": "Effect of phenylpyruvate (MCT pan-inhibition) on cytotoxicity under anoxia", "settings": "anoxic SiHa cells", "experimental": "Effect of phenylpyruvate (PPV, 100 or 500 μM) on proliferation of SiHa cells following 4 h\nexposure under anoxia to PPV alone (A) or with cmpd 4a at pHe 7.4 (B) or pHe 6.5 (C). 3000 cells/well\nwere seeded in 96 well plates, and IC 50 values determined as in Figure S6. Each data point is mean ±\nSEM for three replicate cultures in the same experiment."}, "SiHa cells [5]": {"tested_on": "SiHa cells", "assay": "Cellular uptake in stirred aerobic single cell suspensions (HPLC, 3H-mannitol correction)", "experimental": "In these experiments, cell pellets were collected by centrifugation and ^3H-mannitol was used as a cell-excluded marker to enable correction for the entrapped extracellular medium.\nLog-phase cultures were dissociated with trypsin/EDTA, followed by the addition of the medium with DNAase I (Sigma DN-25) at 100 μg/mL for 5 min at 37 °C to minimize clumping. The cell pellets were collected by centrifugation and resuspended in αMEM with 5% FBS at pH 7.4 or 6.5 to 2 × 10^6 cells/mL. Samples (12 mL) were equilibrated with magnetic stirring at 37 °C under flowing humidified 5% CO2/air or N2 (50–100 mL/min), as previously described [86]. After equilibration for 60 min, the compounds were added in 50 μL of DMSO. The samples (5 mL) were withdrawn 5 and 60 min later, where the cell pellets were then collected by centrifugation and 4 mL of the supernatant was discarded. The pellets were resuspended in the remaining 1 mL, transferred to microcentrifuge tubes containing 7 μL ^3H-mannitol (740 GBq/mmol, American Radiolabeled Chemicals Inc., St. Louis, MO) as an extracellular marker, and then centrifuged (11,000g × 30s). The supernatant was removed and frozen at −80 °C (extracellular samples) and the tubes were centrifuged again, and any remaining medium was carefully removed. Ice-cold MeOH (80 μL) was added to the pellets which were disrupted by pipetting and stored at −80 °C (intracellular samples). When these were thawed for HPLC analysis (Section 4.12), the volume of extracellular water trapped in the pellets was determined by the scintillation counting (PerkinElmer Tri-Carb B2910TR Liquid Scintillation) of 25 μL of each extracellular and intracellular sample in 3 mL of Emulsifier-Safe™ scintillation cocktail (PerkinElmer). The extracellular volume in each intracellular sample was used to correct the intracellular drug concentration as previously described [87].\nThe samples were analyzed using an Agilent 1200 HPLC with a diode array absorbance detector and autosampler maintained at 4 °C (Agilent Technologies). The frozen samples were thawed, then centrifuged (11,000g × 5 min), and then extracellular samples were injected directly (typically 20 μL), while for the intracellular samples 30 μL was mixed 1:1 with αMEM and 50 μL was injected. […] All calibration curves were linear (R^2 > 0.999). The column was an Agilent ZORBAX Eclipse (XDB-C18, 5u, 2.1 × 150 mm, Agilent Technologies) with a flow rate of 0.4 mL/min. For SN30000 (2), the mobile phase was a mixture of 80% MeCN/water v/v (A), and a 45 mM formate buffer at a pH 4.5, eluting with a linear gradient of 5–100% A over 18 min. The same method was used for the BTO acids, except for 4a, where the aqueous mobile phase pH was reduced to 3.5.\nValues are mean and SEM for 3 replicates. ND: Not detected."}}, "note": "Values joined by “and” are separate entries in the source; they are usually repeats but may differ in a detail not shown here. Equal values may be shown once. Read-outs that look alike come from different tables or passages of the source."}
{"smiles": "O=C(O)CCc1n[n+]([O-])c2ccccc2[n+]1[O-]", "note": "[Compound 4a, 3-(2-Carboxyethyl)benzo[e][1,2,4]triazine 1,4-Dioxide]", "values": [{"measurement": "IC50", "setting": "SiHa cells [1]; read-out: Anoxic IC50, SiHa, pHe 6.5, 4 h, anoxic", "result": "97 ± 4", "unit": "µM"}, {"measurement": "IC50", "setting": "SiHa cells [1]; read-out: Anoxic IC50, SiHa, pHe 7.4, 4 h, anoxic", "result": "259 ± 26", "unit": "µM"}, {"measurement": "IC50", "setting": "SiHa cells [1]; read-out: Oxic IC50, SiHa, pHe 6.5, 4 h, oxic", "result": "798 ± 43", "unit": "µM"}, {"measurement": "IC50", "setting": "SiHa cells [1]; read-out: Oxic IC50, SiHa, pHe 7.4, 4 h, oxic", "result": "1950 ± 170", "unit": "µM"}, {"measurement": "TMR (overall TME ratio = oxic IC50 pHe 7.4/anoxic IC50 pHe 6.5)", "setting": "SiHa cells [1]", "result": "20.2 ± 2.0"}, {"measurement": "PCR Anoxic (IC50 at pHe 7.4/IC50 at pHe 6.5)", "setting": "SiHa cells [1]; anoxic", "result": "2.68 ± 0.29"}, {"measurement": "PCR oxic (IC50 at pHe 7.4/IC50 at pHe 6.5)", "setting": "SiHa cells [1]; oxic", "result": "2.45 ± 0.25"}, {"measurement": "ACR (anoxic cytotoxicity ratio = oxic IC50/anoxic IC50)", "setting": "SiHa cells [1]; pHe 6.5", "result": "8.26 ± 0.58"}, {"measurement": "IC50 fold higher than for SN30000", "setting": "SiHa cells [1]; pHe 6.5 under anoxia, representative experiment", "result": "approximately 50 fold"}, {"measurement": "ACR (anoxic cytotoxicity ratio = oxic IC50/anoxic IC50)", "setting": "SiHa cells [1]; pHe 7.4", "result": "7.54 ± 1.00"}, {"measurement": "PCR (pH cytotoxicity ratio)", "setting": "SiHa cells [1]; representative experiment (Figure 3), oxia and anoxia", "result": "~ 2.5"}, {"measurement": "ACR (anoxia cytotoxicity ratio)", "setting": "SiHa cells [1]; representative experiment (Figure 3), pHe 7.4 and 6.5", "result": "~ 8"}, {"measurement": "TMR (oxic IC50 pHe 7.4/anoxic IC50 pHe 6.5)", "setting": "FaDu cells", "result": "9.36 ± 1.68"}, {"measurement": "IC50", "setting": "FaDu cells; pHe 6.5, 4 h, anoxic, read-out: Anoxic IC50", "result": "142 ± 21", "unit": "µM"}, {"measurement": "IC50", "setting": "FaDu cells; pHe 6.5, 4 h, oxic, read-out: Oxic IC50", "result": "507 ± 27", "unit": "µM"}, {"measurement": "IC50", "setting": "FaDu cells; pHe 7.4, 4 h, anoxic, read-out: Anoxic IC50", "result": "325 ± 18", "unit": "µM"}, {"measurement": "IC50", "setting": "FaDu cells; pHe 7.4, 4 h, oxic, read-out: Oxic IC50", "result": "1330 ± 136", "unit": "µM"}, {"measurement": "PCR Anoxic (IC50 at pHe 7.4/IC50 at pHe 6.5)", "setting": "FaDu cells; anoxic", "result": "2.29 ± 0.36"}, {"measurement": "PCR oxic (IC50 at pHe 7.4/IC50 at pHe 6.5)", "setting": "FaDu cells; oxic", "result": "2.62 ± 0.30"}, {"measurement": "ACR (oxic IC50/anoxic IC50)", "setting": "FaDu cells; pHe 6.5", "result": "3.58 ± 0.56"}, {"measurement": "ACR (oxic IC50/anoxic IC50)", "setting": "FaDu cells; pHe 7.4", "result": "4.08 ± 0.48"}, {"measurement": "IC50", "setting": "UT-SCC-74B cells; pHe 6.5, 4 h, 20% O2, read-out: Oxic IC50", "result": "297 ± 74", "unit": "µM"}, {"measurement": "IC50", "setting": "UT-SCC-74B cells; pHe 6.5, 4 h, <0.01% O2, read-out: Anoxic IC50", "result": "97.6 ± 12.3", "unit": "µM"}, {"measurement": "IC50", "setting": "UT-SCC-74B cells; pHe 7.4, 4 h, 20% O2, read-out: Oxic IC50", "result": "863 ± 66", "unit": "µM"}, {"measurement": "IC50", "setting": "UT-SCC-74B cells; pHe 7.4, 4 h, <0.01% O2, read-out: Anoxic IC50", "result": "225 ± 26", "unit": "µM"}, {"measurement": "TME ratio (oxic IC50 pHe 7.4/anoxic IC50 pHe 6.5)", "setting": "UT-SCC-74B cells", "result": "8.84 ± 1.30"}, {"measurement": "PCR Anoxic (IC50 at pHe 7.4/IC50 at pHe 6.5)", "setting": "UT-SCC-74B cells; anoxic", "result": "2.31 ± 0.39 and 2.9"}, {"measurement": "PCR oxic (IC50 at pHe 7.4/IC50 at pHe 6.5)", "setting": "UT-SCC-74B cells; oxic", "result": "2.91 ± 0.76 and 2.3"}, {"measurement": "ACR (oxic IC50/anoxic IC50)", "setting": "UT-SCC-74B cells; pHe 6.5", "result": "3.04 ± 0.85"}, {"measurement": "ACR (oxic IC50/anoxic IC50)", "setting": "UT-SCC-74B cells; pHe 7.4", "result": "3.84 ± 0.53"}, {"measurement": "IC50 ratio SiHa / SiHa/POR (fold lower IC50 in POR cell line)", "setting": "SiHa and SiHa/POR cells", "result": "3.40 ± 0.22 and 3.4"}, {"measurement": "Maximum intracellular concentration", "setting": "SiHa cells [2]", "result": 4.1, "unit": "mM"}, {"measurement": "solubility", "setting": "[3]", "result": 17.1, "unit": "mM"}, {"measurement": "Effect of pan-inhibition of MCT by phenylpyruvate on sensitivity", "setting": "SiHa cells [4]", "result": "no effect"}, {"measurement": "Uptake (Ci/Ce) at 4 °C relative to 37 °C", "setting": "SiHa cells [5]; SiHa cell suspensions, data not shown", "result": "undetectable"}, {"measurement": "Ci/Ce, pHe 6.5 Obs 5 min", "setting": "SiHa cells [5]; aerobic SiHa suspensions, pHe 6.5, 5 min", "result": "<0.1"}, {"measurement": "Ci/Ce, pHe 6.5 Obs 60 min", "setting": "SiHa cells [5]; aerobic SiHa suspensions, pHe 6.5, 60 min", "result": "<0.1"}, {"measurement": "Ci/Ce, pHe 7.4 Obs 5 min", "setting": "SiHa cells [5]; aerobic SiHa suspensions, pHe 7.4, 5 min", "result": "<0.1"}, {"measurement": "Ci/Ce, pHe 7.4 Obs 60 min", "setting": "SiHa cells [5]; aerobic SiHa suspensions, pHe 7.4, 60 min", "result": "<0.1"}]}
